Assay results taken from patent publication US8349893B2, “4-trimethylammonio-butyrates as CPT2 inhibitors” (Hoffmann-La Roche Inc., priority 2008, dated 2013).

Key:
hL-CPT1 = molecular target: T1, hL-CPT1 (Homo sapiens, UniProt P50416); assay: hL-CPT1 inhibition (spectrophotometric DTNB CPT activity assay); format: biochemical; details: human liver CPT1 expressed in P. pastoris, cell extract; carnitine 500 μM, palmitoyl-CoA 80 μM, DTNB 300 μM
T1 construct: made in house; host or cells: Pichia pastoris strain X-33 (pGAPZB/pGAPZA), crude cell-free extract
T1 sequence (P50416 1-773): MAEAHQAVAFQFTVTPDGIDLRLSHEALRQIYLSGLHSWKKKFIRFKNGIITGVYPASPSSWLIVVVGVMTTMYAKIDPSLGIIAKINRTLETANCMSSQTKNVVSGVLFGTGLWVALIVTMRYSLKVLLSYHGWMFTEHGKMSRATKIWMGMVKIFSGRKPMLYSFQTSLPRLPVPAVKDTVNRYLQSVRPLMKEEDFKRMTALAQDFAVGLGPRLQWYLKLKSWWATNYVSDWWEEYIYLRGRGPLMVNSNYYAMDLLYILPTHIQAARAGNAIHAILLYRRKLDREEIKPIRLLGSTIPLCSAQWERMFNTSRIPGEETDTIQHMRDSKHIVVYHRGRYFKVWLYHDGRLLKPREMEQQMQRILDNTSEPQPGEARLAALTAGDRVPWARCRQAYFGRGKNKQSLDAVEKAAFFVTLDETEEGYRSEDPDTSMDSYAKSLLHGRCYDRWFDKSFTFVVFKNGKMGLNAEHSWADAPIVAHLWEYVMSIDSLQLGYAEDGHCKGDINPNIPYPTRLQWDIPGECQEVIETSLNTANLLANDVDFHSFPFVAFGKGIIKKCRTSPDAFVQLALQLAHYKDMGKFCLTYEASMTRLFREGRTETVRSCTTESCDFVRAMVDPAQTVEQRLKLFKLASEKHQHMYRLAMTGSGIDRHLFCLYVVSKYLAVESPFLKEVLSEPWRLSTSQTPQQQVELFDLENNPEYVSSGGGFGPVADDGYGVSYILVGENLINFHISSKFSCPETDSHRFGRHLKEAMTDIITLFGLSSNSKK
Procedure: (§1) The following tests were carried out in order to determine the activity of the compounds of the present invention. Background information on the performed assays can be found in: Jackson et al., 1999, Biochem. J. 341, 483-489 and Jackson et al., 2000, J. Biol. Chem. 275, 19560-19566.
(§2) Human and rat CPT2- and liver CPT1 cDNAs, and human muscle CPT1 cDNA were subcloned in pGAPZB or pGAPZA, respectively. These plasmids were used to transform P. pastoris strain X-33 via electroporation after the preparation of electrocompetent cells. High copy number clones were selected where necessary using 0.5 or 1 mg/ml Zeocin. Cultures for activity measurements were induced for 16 h in YPD medium (1% yeast extract, 2% peptone, 2% glucose). Crude cell extracts were prepared by disrupting the cells with glass beads or French Press, depending on fermenter sizes. After centrifugation, the cell-free extracts were resuspended in cell breaking buffer (50 mM Tris, pH7.4, 100 mM KCl, 1 mM EDTA) in the presence of a protease inhibitor cocktail, before aliquoting and freezing at −20° C.
(§3) CPT activity was measured using a spectrophotometric assay using 5,5′-dithio-bis-(2-nitrobenzoic acid) (DTNB) also called Ellman's reagent. The HS-CoA released on the formation of acylcarnitine from carnitine (500 μM) and palmitoyl-CoA (80 μM) reduced DTNB (300 μM) forming 5-mercapto-2-nitrobenzoic acid which absorbed at 410 nm with a molar extinction coefficient of 13600 M^−1 cm^−1. The assay buffer contained 120 mM KCl, 25 mM Tris, pH 7.4, 1 mM EDTA. This assay was used for the identification of CPT inhibitors, particularly/preferentially CPT2-selective inhibitors, versus the liver and muscle CPT1 isoforms.

hCPT2 = molecular target: T2, hCPT2 (Homo sapiens, UniProt P23786); assay: hCPT2 inhibition (spectrophotometric DTNB CPT activity assay); format: biochemical; details: human CPT2 expressed in P. pastoris, cell extract; carnitine 500 μM, palmitoyl-CoA 80 μM, DTNB 300 μM
T2 construct: made in house; host or cells: Pichia pastoris strain X-33 (pGAPZB/pGAPZA), crude cell-free extract
T2 sequence (P23786 26-658): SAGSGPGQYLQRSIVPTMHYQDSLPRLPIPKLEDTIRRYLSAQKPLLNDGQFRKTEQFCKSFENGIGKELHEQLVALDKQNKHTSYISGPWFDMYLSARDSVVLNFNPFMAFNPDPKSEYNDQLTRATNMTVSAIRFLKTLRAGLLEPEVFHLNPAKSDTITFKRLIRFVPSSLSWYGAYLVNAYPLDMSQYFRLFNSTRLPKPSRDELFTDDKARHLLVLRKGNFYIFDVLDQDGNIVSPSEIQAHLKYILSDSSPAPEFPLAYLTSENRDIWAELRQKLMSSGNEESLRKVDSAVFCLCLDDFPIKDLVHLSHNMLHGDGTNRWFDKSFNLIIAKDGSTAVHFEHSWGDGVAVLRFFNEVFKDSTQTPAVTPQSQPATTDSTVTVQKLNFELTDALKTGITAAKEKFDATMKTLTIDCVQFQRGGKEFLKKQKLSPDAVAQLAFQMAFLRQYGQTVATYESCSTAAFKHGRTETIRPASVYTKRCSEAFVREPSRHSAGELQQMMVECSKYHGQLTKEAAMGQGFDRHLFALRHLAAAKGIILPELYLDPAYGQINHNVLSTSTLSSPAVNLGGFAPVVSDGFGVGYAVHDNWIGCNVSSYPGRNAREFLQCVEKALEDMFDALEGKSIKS
Procedure: as §1, §2, §3

Row | IC50 (hL-CPT1) [nM] | IC50 (hCPT2) [nM] | SMILES
1 | 2190 | 73.2 | C[N+](C)(C)C[C@@H](CC(=O)[O-])NC(=O)CCCCCCCOCc1ccc(F)c(F)c1 [Example 1, (R)-3-[8-(3,4-Difluoro-benzyloxy)-octanoylamino]-4-trimethylammonio-butyrate]
2 | 5630 | 125 | C[N+](C)(C)C[C@@H](CC(=O)[O-])NC(=O)CCCCCCCOCc1cc(F)ccc1F [Example 2, (R)-3-[8-(2,5-Difluoro-benzyloxy)-octanoylamino]-4-trimethylammonio-butyrate]
3 | 1120 | 298 | C[N+](C)(C)C[C@@H](CC(=O)[O-])NC(=O)CCCCCCCOCc1ccc(F)cc1F [Example 3, (R)-3-[8-(2,4-Difluoro-benzyloxy)-octanoylamino]-4-trimethylammonio-butyrate]
4 | 4340 | 32.1 | C[N+](C)(C)C[C@@H](CC(=O)[O-])NC(=O)CCCCCCCOCc1ccc(C(F)(F)F)cc1 [Example 6, (R)-3-[8-(4-Trifluoromethyl-benzyloxy)-octanoylamino]-4-trimethylammonio-butyrate]
5 | 2250 | 32.3 | C[N+](C)(C)C[C@@H](CC(=O)[O-])NC(=O)CCCCCCCOCc1ccc(C(F)(F)F)c(F)c1 [Example 7, (R)-3-[8-(3-Fluoro-4-trifluoromethyl-benzyloxy)-octanoylamino]-4-trimethylammonio-butyrate]
6 | 7190 | 53.7 | COc1ccc(COCCCCCCCC(=O)N[C@H](CC(=O)[O-])C[N+](C)(C)C)cc1 [Example 8, (R)-3-[8-(4-Methoxy-benzyloxy)-octanoylamino]-4-trimethylammonio-butyrate]
7 | 1090 | 1.2 | C[N+](C)(C)C[C@@H](CC(=O)[O-])NC(=O)CCCCCCCOCc1ccc(-c2ccccc2)cc1 [Example 9, (R)-3-[8-(Biphenyl-4-ylmethoxy)-octanoylamino]-4-trimethylammonio-butyrate]
8 | > 10000 | 41 | C[N+](C)(C)C[C@@H](CC(=O)[O-])NC(=O)CCCCCCCOCc1cccc2ccccc12 [Example 12, (R)-3-[8-(Naphthalen-1-ylmethoxy)-octanoylamino]-4-trimethylammonio-butyrate]
9 | 3250 | 29.4 | C[N+](C)(C)C[C@@H](CC(=O)[O-])NC(=O)CCCCCCCOCc1cccc(F)c1 [Example 15, (R)-3-[8-(3-Fluoro-benzyloxy)-octanoylamino]-4-trimethylammonio-butyrate]
10 | 621 | 14.5 | C[N+](C)(C)C[C@@H](CC(=O)[O-])NC(=O)CCCCCCCCCc1ccccc1 [Example 18, (R)-3-(10-Phenyl-decanoylamino)-4-trimethylammonio-butyrate]
11 | 3980 | 21.2 | C[N+](C)(C)C[C@@H](CC(=O)[O-])NC(=O)CCCCCCCCCc1cccc2ccccc12 [Example 24, (R)-3-(10-Naphthalen-1-yl-decanoylamino)-4-trimethylammonio-butyrate]
12 | 3070 | 125 | C[N+](C)(C)C[C@@H](CC(=O)[O-])NC(=O)CCCCCCCCCc1ccc(C(F)(F)F)cc1 [Example 25, (R)-4-Trimethylammonio-3-[10-(4-trifluoromethyl-phenyl)-decanoylamino]-butyrate]
13 | 1820 | 8.1 | C[N+](C)(C)C[C@@H](CC(=O)[O-])NC(=O)CCCCCCCCCc1cccc(F)c1 [Example 26, (R)-3-[10-(3-Fluoro-phenyl)-decanoylamino]-4-trimethylammonio-butyrate]
14 | 854 | 20.2 | C[N+](C)(C)C[C@@H](CC(=O)[O-])NC(=O)CCCCCCCCCc1ccsc1 [Example 28, (R)-3-(10-Thiophen-3-yl-decanoylamino)-4-trimethylammonio-butyrate]
15 | 1380 | 538 | C[N+](C)(C)C[C@@H](CC(=O)[O-])NC(=O)CCCCCCCc1ccccc1 [Example 31, (R)-3-(8-phenyl-octanoylamino)-4-trimethylammonio-butyrate]
16 | 2370 | 246 | C[N+](C)(C)C[C@@H](CC(=O)[O-])NC(=O)CCCCCCCCc1ccccc1 [Example 32, (R)-3-(9-Phenyl-nonanoylamino)-4-trimethylammonio-butyrate]
17 | 6080 | 486 | C[N+](C)(C)C[C@@H](CC(=O)[O-])NC(=O)CCCCCCCCCCc1ccccc1 [Example 33, (R)-3-(11-Phenyl-undecanoylamino)-4-trimethylammonio-butyrate]
18 | 427 | 16.6 | C[N+](C)(C)C[C@@H](CC(=O)[O-])NC(=O)CCCCCCCCCCCc1ccccc1 [Example 34, (R)-3-(12-Phenyl-dodecanoylamino)-4-trimethylammonio-butyrate]
